The structures appear in SMILES notation. A value given as a limit tells only on which side of the number the result lay.

The species entered for test [1] is Homo sapiens. The experiment in a line: Selectivity ratio, ratio of Ki for CatB (unknown origin) to Ki for Cal1 (unknown origin).
Test [2] has as its target T1, Calpain-1 catalytic subunit (Homo sapiens, UniProt P07384).
T1 sequence (P07384 whole entry): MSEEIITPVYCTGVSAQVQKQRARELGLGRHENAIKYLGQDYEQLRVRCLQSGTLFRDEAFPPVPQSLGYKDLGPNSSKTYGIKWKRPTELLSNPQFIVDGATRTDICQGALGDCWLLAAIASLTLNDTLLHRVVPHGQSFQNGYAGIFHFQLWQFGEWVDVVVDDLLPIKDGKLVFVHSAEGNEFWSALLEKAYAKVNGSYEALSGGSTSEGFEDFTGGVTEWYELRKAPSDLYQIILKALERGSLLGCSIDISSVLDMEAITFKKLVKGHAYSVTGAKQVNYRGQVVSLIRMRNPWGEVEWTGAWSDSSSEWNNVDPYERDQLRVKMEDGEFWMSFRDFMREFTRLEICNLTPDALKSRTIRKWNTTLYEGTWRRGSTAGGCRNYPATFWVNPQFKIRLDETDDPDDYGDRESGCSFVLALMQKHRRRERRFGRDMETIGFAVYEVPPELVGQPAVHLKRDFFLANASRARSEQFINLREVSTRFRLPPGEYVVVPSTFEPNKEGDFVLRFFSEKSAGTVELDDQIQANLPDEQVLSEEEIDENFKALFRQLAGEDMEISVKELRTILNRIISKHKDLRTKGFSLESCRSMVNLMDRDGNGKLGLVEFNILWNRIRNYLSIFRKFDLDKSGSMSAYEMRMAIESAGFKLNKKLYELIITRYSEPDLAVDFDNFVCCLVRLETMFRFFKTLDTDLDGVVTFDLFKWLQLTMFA
The test is described as follows: Inhibition of Cal1 (unknown origin).

For test [3], the species on record is Homo sapiens. The experiment in a line: Selectivity ratio, ratio of Ki for CatL (unknown origin) to Ki for Cal1 (unknown origin).
Test [4] is filed under the species Homo sapiens. The test is described as follows: Selectivity ratio, ratio of Ki for CatK (unknown origin) to Ki for Cal1 (unknown origin).
A short description of test [5]: Selectivity ratio, ratio of Ki for CatS (unknown origin) to Ki for Cal1 (unknown origin). The note with it: Homo sapiens.

In the case of `CC(C)(C)CN1C(=O)CC[C@@H]1C(=O)NC(Cc1ccccc1)C(=O)C(N)=O` (mixture of isomers), the Selectivity ratio in the test listed under Homo sapiens [1] was 23; in the test filed under Homo sapiens [3] it was 7; in the test listed under Homo sapiens [4], 7; in test [5], 7. Affinity in test [2] was put at a Ki of 1350 nM.

Take `NC(=O)C(=O)C(Cc1ccccc1)NC(=O)[C@H]1CCC(=O)N1Cc1cccc(C(F)(F)F)c1` (mixture of isomers): the Selectivity ratio in the test listed under Homo sapiens [1] worked out at 15; in the test listed under Homo sapiens [3], 11; in the test listed under Homo sapiens [4], 84; in test [5], 85. The affinity in test [2], expressed as Ki, was 26 nM.

`NC(=O)C(=O)C(Cc1ccccc1)NC(=O)C1CCS(=O)(=O)N1Cc1ccccc1` (mixture of isomers): the Selectivity ratio in the test listed under Homo sapiens [1] turned out to be 56; in the test filed under Homo sapiens [3], 12; in the test listed under Homo sapiens [4], 2; in test [5] it was 7. Moreover, the inhibition constant (Ki) – broadly, the equilibrium dissociation constant of an inhibitor or competing ligand from its target – in test [2] was 268 nM.

On to `NC(=O)C(=O)C(Cc1ccccc1)NC(=O)c1cccc(=O)n1Cc1ccccc1` (stereo not given), for which the Selectivity ratio was found to be 15 in the test listed under Homo sapiens [1], 4 in the test listed under Homo sapiens [3], 2 in the test listed under Homo sapiens [4] and 13 in test [5]. In test [2], this compound gave a Ki of 82 nM.

Take `NC(=O)C(=O)C(Cc1ccccc1)NC(=O)[C@H]1CCC(=O)N1Cc1ccccc1OC(F)(F)F` (mixture of isomers): the Selectivity ratio in the test listed under Homo sapiens [1] was found to be 5; in the test listed under Homo sapiens [3], 41; in the test filed under Homo sapiens [4], 33; in test [5] it was 127. Besides, the affinity in test [2] corresponds to a Ki of 57 nM.

In the case of `NC(=O)C(=O)C(Cc1ccccc1)NC(=O)[C@H]1CCC(=O)N1Cc1ccccc1C(F)(F)F` (mixture of isomers), the Selectivity ratio in the test filed under Homo sapiens [1] stood at 17; in the test filed under Homo sapiens [3] it was 65; in the test listed under Homo sapiens [4], 102; in test [5], 524. This compound gave a Ki in test [2] of 59 nM.

As for `NC(=O)C(=O)C(Cc1ccccc1)NC(=O)c1cccnc1-n1ccc(-c2ccc(F)cc2)n1` (stereo not given), the Selectivity ratio was 10 in the test listed under Homo sapiens [1], 127 in the test filed under Homo sapiens [3], 18 in the test filed under Homo sapiens [4] and greater than 300 in test [5].

In the case of `NC(=O)C(=O)C(Cc1ccccc1)NC(=O)[C@H]1CCC(=O)N1CC1CCCCC1` (mixture of isomers), the Selectivity ratio is 8 in the test listed under Homo sapiens [1], 2 in the test filed under Homo sapiens [3], less than 1 in the test filed under Homo sapiens [4] and 5 in test [5]. For the same compound, the Ki in test [2] amounted to 200 nM.

Consider `C[C@H]1C[C@H](C(=O)NC(Cc2ccccc2)C(=O)C(N)=O)N(Cc2ccccc2)C1=O` (mixture of isomers), for which the Selectivity ratio in the test filed under Homo sapiens [1] was 23; in the test listed under Homo sapiens [3] it was 13; in the test listed under Homo sapiens [4], 1; in test [5] it was 3. Moreover, in test [2], the affinity corresponds to a Ki of 50 nM.

For the compound `COc1cccc(C(F)(F)F)c1CN1C(=O)CC[C@@H]1C(=O)NC(Cc1ccccc1)C(=O)C(N)=O` (mixture of isomers), the Selectivity ratio in the test filed under Homo sapiens [1] worked out at 51; in the test filed under Homo sapiens [3], 387; in the test filed under Homo sapiens [4] it was 120; in test [5], 395. The compound further displayed a Ki in test [2] of 36 nM.

Take `CCCCC(NC(=O)[C@H]1CCC(=O)N1Cc1ccccc1)C(=O)C(N)=O` (mixture of isomers): the Selectivity ratio in the test filed under Homo sapiens [1] was found to be 4; in the test filed under Homo sapiens [3], 21; in the test listed under Homo sapiens [4], 6; in test [5], 41. In addition, the affinity in test [2], expressed as Ki, was 46 nM.

For the compound `NC(=O)C(=O)C(Cc1ccccc1)NC(=O)[C@@H]1CCC(=O)N1Cc1ccccc1` (mixture of isomers), the Selectivity ratio is 5 in the test filed under Homo sapiens [1], 6 in the test filed under Homo sapiens [3], 17 in the test filed under Homo sapiens [4] and 2 in test [5]. The same compound showed a Ki in test [2] of 528 nM.

Take `CONC(=O)C(=O)C(Cc1ccccc1)NC(=O)[C@H]1CCC(=O)N1Cc1ccccc1` (stereo not given in full): the inhibition constant Ki in test [2] stood at 4360 nM. This lies in the single-digit micromolar range.
